Target: recombinant human SAE enzyme (Homo sapiens (Human), UniProt Q9UBT2)
Test: SAE HTRF enzyme assay
Type: biochemical
Conditions: for inhibition at 0.111 µM: read-out: Percent Inhibition
How it was run: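 First, recombinant human SAE (0.11 nM) transfers Sumo-Flag onto Ubc9-GST using 0.5 μM ATP for 105 min at 24° C. Next, EDTA-containing detection buffer with labelled anti-Flag and anti-GST antibodies is added for 2 h. Finally, FRET is quantified and percent inhibition or IC50 derived.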

Sequence of recombinant human SAE enzyme (Q9UBT2 whole entry): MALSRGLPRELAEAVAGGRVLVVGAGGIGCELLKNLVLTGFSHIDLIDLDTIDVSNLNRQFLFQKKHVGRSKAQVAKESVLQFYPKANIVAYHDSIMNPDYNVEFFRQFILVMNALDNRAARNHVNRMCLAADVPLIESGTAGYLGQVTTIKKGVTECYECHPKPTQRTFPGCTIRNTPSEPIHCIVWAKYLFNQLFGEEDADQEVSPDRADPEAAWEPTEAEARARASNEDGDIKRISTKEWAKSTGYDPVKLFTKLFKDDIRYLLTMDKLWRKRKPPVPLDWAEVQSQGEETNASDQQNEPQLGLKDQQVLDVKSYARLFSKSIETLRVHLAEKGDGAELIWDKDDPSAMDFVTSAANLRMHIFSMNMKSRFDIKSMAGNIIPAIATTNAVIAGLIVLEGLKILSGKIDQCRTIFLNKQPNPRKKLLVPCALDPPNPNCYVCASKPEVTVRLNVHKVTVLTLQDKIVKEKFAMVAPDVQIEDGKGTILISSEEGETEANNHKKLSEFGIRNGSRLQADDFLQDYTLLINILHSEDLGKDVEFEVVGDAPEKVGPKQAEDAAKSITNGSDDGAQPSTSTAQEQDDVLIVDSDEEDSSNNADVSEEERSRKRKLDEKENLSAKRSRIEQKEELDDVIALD
Sequence of recombinant human SAE enzyme (Q9UBE0 whole entry partner): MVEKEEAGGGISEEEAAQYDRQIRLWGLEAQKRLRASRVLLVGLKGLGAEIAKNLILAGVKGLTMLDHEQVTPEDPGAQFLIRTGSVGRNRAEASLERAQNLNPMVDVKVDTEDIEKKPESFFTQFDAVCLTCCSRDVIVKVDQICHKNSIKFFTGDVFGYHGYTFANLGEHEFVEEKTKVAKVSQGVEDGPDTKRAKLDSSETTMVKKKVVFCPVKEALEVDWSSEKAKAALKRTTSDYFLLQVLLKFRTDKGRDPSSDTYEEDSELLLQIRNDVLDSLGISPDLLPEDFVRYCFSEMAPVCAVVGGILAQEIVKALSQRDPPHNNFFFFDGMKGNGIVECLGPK

Row | SMILES | Percent Inhibition (Concentration 0.111 μM) | IC50 (class symbols A/B/C) [nM] | inhibition at 0.111 µM (Concentration 0.111 μM) [%] | Percent Inhibition (SAE inhibition at compound concentration 0.111 μM) [%] | IC50 (SAE inhibition, class symbols, legend in nM) [nM]
1 | NS(=O)(=O)OCC1CC(Nc2ncncc2C(=O)c2cc(C3OCCc4ccc(Cl)nc43)c(Cl)s2)CC1O (mixture of isomers) [I-276, [(1R,2S,4R)-4-{[5-({5-chloro-4-[(8S)-2-chloro-5,8-dihydro-6H-pyrano[3,4-b]pyridin-8-yl]-2-thienyl}carbonyl)pyrimidin-4-yl]amino}-2-hydroxycyclopentyl]methyl sulfamate and [(1R,2S,4R)-4-{[5-({5-chloro-4-[(8R)-2-chloro-5,8-dihydro-6H-pyrano[3,4-b]pyridin-8-yl]-2-thienyl}carbonyl)pyrimidin-4-yl]amino}-2-hydroxycyclopentyl]methyl sulfamate] | 98 | < 10 | – | – | –
2 | NS(=O)(=O)OC[C@H]1C[C@@H](Nc2ncncc2C(=O)c2cc(COc3ccccc3I)cs2)C[C@@H]1O [I-161, [(1R,2S,4R)-2-Hydroxy-4-{[-({4-(2-iodophenoxy)methyl]-2-thienyl}carbonyl)pyrimidin-4-yl]amino}cyclopentyl]methyl sulfamate] | 91 | < 10 | – | – | –
3 | NS(=O)(=O)OC[C@H]1C[C@@H](Nc2ncncc2C(=O)c2cc(C3(c4cccc(Cl)c4)CCCO3)cs2)C[C@@H]1O (single isomer, unassigned) [I-20b, [(1R,2S,4R)-4-{[5-({4-[(2S)-2-(3-chlorophenyl)tetrahydrofuran-2-yl]-2-thienyl}carbonyl)pyrimidin-4-yl]amino}-2-hydroxycyclopentyl]methyl sulfamate or [(1R,2S,4R)-4-{[5-({4-[(2R)-2-(3-chlorophenyl)tetrahydrofuran-2-yl]-2-thienyl}carbonyl)pyrimidin-4-yl]amino}-2-hydroxycyclopentyl]methyl sulfamate] | 99 | < 10 | – | – | –
4 | NS(=O)(=O)OC[C@H]1C[C@@H](Nc2ncncc2C(=O)c2cc(CSc3ccccc3Cl)cs2)C[C@@H]1O [I-147, [(1R,2S,4R)-4-({5-[(4-{[(2-chlorophenyl)sulfanyl]methyl}-2-thienyl)carbonyl]pyrimidin-4-yl}amino)-2-hydroxycyclopentyl]methyl sulfamate] | – | < 10 | 94 | – | –
5 | Cc1sc(C(=O)c2cncnc2N[C@@H]2C[C@H](COS(N)(=O)=O)[C@@H](O)C2)cc1[C@H]1OCOc2ccccc21 (mixture of isomers) [I-280, [(1R,2S,4R)-4-{[5-({4-[(4R)-4H-1,3-benzodioxin-4-yl]-5-methyl-2-thienyl}carbonyl)pyrimidin-4-yl]amino}-2-hydroxycyclopentyl]methyl sulfamate and [(1R,2S,4R)-4-{[5-({4-[(4S)-4H-1,3-benzodioxin-4-yl]-5-methyl-2-thienyl}carbonyl)pyrimidin-4-yl]amino}-2-hydroxycyclopentyl]methyl sulfamate] | – | – | – | 98 | < 10
6 | Cc1sc(C(=O)c2cncnc2NC2CC(O)C(COS(N)(=O)=O)C2)cc1C(N)c1cccc(Cl)c1 (mixture of isomers) [I-6, [(1R,2S,4R)-4-{[5-({4-[(R)-amino(3-chlorophenyl)methyl]-5-methyl-2-thienyl}carbonyl)pyrimidin-4-yl]amino}-2-hydroxycyclopentyl]methyl sulfamate and [(1R,2S,4R)-4-{[5-({4-[(S)-amino(3-chlorophenyl)methyl]-5-methyl-2-thienyl}carbonyl)pyrimidin-4-yl]amino}-2-hydroxycyclopentyl]methyl sulfamate] | 98 | < 10 | – | – | –
7 | Cc1oc(C(=O)c2cncnc2N[C@@H]2C[C@H](COS(N)(=O)=O)[C@@H](O)[C@@H]2F)cc1Cc1cccc(Cl)c1 [I-75, [(1R,2R,3R,4R)-4-({5-[4-(3-chlorobenzyl)-5-methyl-2-furoyl]pyrimidin-4-yl}amino)-3-fluoro-2-hydroxycyclopentyl]methyl sulfamate] | – | < 10 | 98 | – | –
8 | NS(=O)(=O)OC[C@H]1C[C@@H](Nc2ncncc2C(=O)c2cc(Cc3cccc(I)c3)cs2)C[C@@H]1O [I-62, {(1R,2S,4R)-2-hydroxy-4-[(5-{[4-(3-iodobenzyl)-2-thienyl]carbonyl}pyrimidin-4-yl)amino]cyclopentyl}methyl sulfamate] | – | – | 98 | – | –

Reference: patent publication US10780090B2, “Heteroaryl compounds useful as inhibitors of SUMO activating enzyme” (Millennium Pharmaceuticals, Inc., priority 2014, dated 2020)
